Assay results reported in US8895585B2, “Nicotinamide derivative or salt thereof” (FUJIFILM Corporation, priority 2010, dated 2014).
pIC50: −log10 of the molar value. Structures can show the parent of a compound that is named as a salt. Where two headings read alike, the source gives them in different places.

Experiments:
[1] = molecular target: T1, glutathione S-transferase (GST)-fused full-length human Syk protein (Homo sapiens, UniProt P43405); assay: Syk enzyme assay; type: biochemical
T1 construct: (GST)-fused full-length human Syk protein; GST (glutathione S-transferase); purchased Carna Biosciences
Summary of the method: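 Baculovirus-expressed enzyme (1.2 ng) was preincubated with compound in HEPES pH 7.0/MgCl2/DTT buffer, 2 min shaking then 13 min at room temperature. Biotin-EDPDYEWPSA-NH2 (0.4 μM final) and ATP (27 μM final) were added for 40 min at room temperature. EDTA stop, streptavidin-XL/PT66-K TR-FRET at 615/665 nm gave IC50.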

THP-1 cells = assay: TNFα generation assay; type: cell-based, human; details: Homo sapiens
Summary of the method: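 Secreted TNFα in supernatant quantified by ELISA or AlphaLISA after 7 h culture on human IgG-coated wells (10 μg/ml coating). Cells were IFN-γ-differentiated THP-1 (10 ng/ml, 2 days), exposed to compound for 30 min at room temperature before plating.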

[2] = Syk enzyme assay, Test Example 1, read-out: IC50 of Syk-inhibitory activity
[3] = THP-1, THP-1 cells, Table 22, read-out: IC50 in TNFα generation assay
[4] = read-out: Syk-inhibitory activity (IC50)
[5] = THP-1, 7 h, IFN-γ-differentiated THP-1 cells on human IgG-coated plate, cultured 7 hours, read-out: TNFα generation inhibitory activity (IC50)

Structure (SMILES)	pIC50 [1, 2]	pIC50 (THP-1 cells; [3])	pIC50 [1, 4]	pIC50 (THP-1 cells; [5])
NC(=O)c1cc(F)c(N[C@@H]2CCCC[C@@H]2N)nc1Nc1ccnc(-n2cccn2)c1 (relative stereo) [Example 006-130, 2-((2-(1H-pyrazol-1-yl)pyridin-4-yl)amino)-6-((cis-2-aminocyclohexyl)amino)-5-fluoronicotinamide]	7.30 to 8.00	6.89 to 7.19		
NC(=O)c1cc(F)c(N[C@@H]2CCCC[C@@H]2N)nc1Nc1ccnc(Cl)c1 (relative stereo) [Example 006-163, 6-((cis-2-aminocyclohexyl)amino)-2-((2-chloropyridin-4-yl)amino)-5-fluoronicotinamide]	> 8.00	6.89 to 7.19		
NC(=O)c1cc(F)c(N[C@@H]2CCCC[C@@H]2N)nc1Nc1cnc2ccccc2c1 (relative stereo) [Example 7, 6-(cis-2-aminocyclohexylamino)-5-fluoro-2-(quinolin-3-ylamino)nicotinamide]			≥ 6.00	≥ 6.70
NC(=O)c1cc(F)c(N[C@@H]2CCCC[C@@H]2N)nc1Nc1cnc2ncccc2c1 (relative stereo) [Example 10-2, 6-(cis-2-aminocyclohexylamino)-5-fluoro-2-((1,8-naphthyridin-3-yl)amino)nicotinamide]			≥ 6.00	≥ 6.70
NC(=O)c1cc(F)c(N[C@@H]2CCCC[C@@H]2N)nc1Nc1cncc(NC(=O)c2ccccn2)c1 (relative stereo) [Example 027-020, N-(5-(6-(cis-2-aminocyclohexylamino)-3-carbamoyl-5-fluoropyridin-2-yl)aminopyridin-3-yl)picolinamide]	7.30 to 8.00	6.70 to 6.89		
CN(C)C(=O)c1cc2cc(Nc3nc(N[C@@H]4CCCC[C@@H]4N)c(F)cc3C(N)=O)ccc2[nH]1 (relative stereo) [Example 029-016, 5-((6-(cis-2-aminocyclohexylamino)-3-carbamoyl-5-fluoropyridin-2-yl)amino)-N,N-dimethyl-1H-indole-2-carboxamide]	> 8.00	6.70 to 6.89		
Cc1cncc(Nc2nc(N[C@@H]3CCCC[C@@H]3N)c(Cl)cc2C(N)=O)c1 (relative stereo) [Example 34, 6-(cis-2-aminocyclohexylamino)-5-chloro-2-(5-methylpyridin-3-ylamino)nicotinamide•hydrochloride]			≥ 6.00	≥ 6.70
NC(=O)c1cc(F)c(N[C@@H]2CCCC[C@@H]2N)nc1Nc1cc(N)c2ncccc2c1 (relative stereo) [Example 41-1, 6-(cis-2-aminocyclohexylamino)-2-((8-aminoquinolin-6-yl)amino)-5-fluoronicotinamide]	> 8.00	6.70 to 6.89		
CCS(=O)(=O)Nc1cccc2cc(Nc3nc(N[C@@H]4CCCC[C@@H]4N)c(F)cc3C(N)=O)cnc12 (relative stereo) [Example 41-12, 6-(cis-2-aminocyclohexylamino)-2-((8-(ethylsulphonamide)quinolin-3-yl)amino)-5-fluoronicotinamide]	> 8.00	6.70 to 6.89		
NC(=O)c1cc(F)c(N[C@@H]2CCCC[C@@H]2N)nc1Nc1cncc2ccccc12 (single isomer, unassigned) [Example 9, 6-(cis-2-aminocyclohexylamino)-5-fluoro-2-(isoquinolin-4-ylamino)nicotinamide•hydrochloride]			≥ 6.00	≥ 6.70
COc1cc(Nc2nc(N[C@@H]3CCCC[C@@H]3N)c(F)cc2C(N)=O)cc(OC)c1 (single isomer, unassigned) [Example 21, 6-(cis-2-aminocyclohexylamino)-2-(3,5-dimethoxyphenylamino)-5-fluoronicotinamide]			≥ 6.00	≥ 6.70
COc1cc(Nc2nc(NC3CCCCC3N)c(F)cc2C(N)=O)cc(OC)c1OC (stereo not shown) [Example 002-007]	7.30 to 8.00	6.89 to 7.19		
Cc1cc(Nc2nc(NC3CCCCC3N)c(F)cc2C(N)=O)cnc1C (stereo not shown) [Example 002-024]	> 8.00	6.70 to 6.89		
NC(=O)c1cc(F)c(NC2CCCCC2N)nc1Nc1cccc2[nH]ncc12 (stereo not shown) [Example 002-025]	> 8.00	6.89 to 7.19		
COCCn1ncc2c(Nc3nc(NC4CCCCC4N)c(F)cc3C(N)=O)cccc21 (stereo not shown) [Example 002-030]	> 8.00	6.70 to 6.89		
NC(=O)c1cc(F)c(NC2CCCCC2N)nc1Nc1cccc2nn(CC3CC3)cc12 (stereo not shown) [Example 002-032]	> 8.00	6.70 to 6.89		
NC(=O)c1cc(F)c(NC2CCCCC2N)nc1Nc1ccc2nn(Cc3ccccc3)cc2c1 (stereo not shown) [Example 002-037]	> 8.00	6.70 to 6.89		
CCc1cncc(Nc2nc(NC3CCCCC3N)c(F)cc2C(N)=O)c1 (stereo not shown) [Example 002-038]	> 8.00	6.89 to 7.19		
Cn1cc2cc(Nc3nc(NC4CCCCC4N)c(F)cc3C(N)=O)ccc2n1 (stereo not shown) [Example 002-041]	> 8.00	6.89 to 7.19		
COCCn1ncc2ccc(Nc3nc(NC4CCCCC4N)c(F)cc3C(N)=O)cc21 (stereo not shown) [Example 002-048]	> 8.00	6.70 to 6.89		
NC(=O)c1cc(F)c(NC2CCCCC2N)nc1Nc1ccnc(-c2ccco2)c1 (stereo not shown) [Example 002-053]	> 8.00	6.89 to 7.19		
NC(=O)c1cc(F)c(NC2CCCCC2N)nc1Nc1ccnc(N2CCCC2=O)c1 (stereo not shown) [Example 002-054]	7.30 to 8.00	6.89 to 7.19		
CC(C)Oc1cc(Nc2nc(NC3CCCCC3N)c(F)cc2C(N)=O)ccn1 (stereo not shown) [Example 002-055]	> 8.00	6.70 to 6.89		
NC(=O)c1cc(F)c(NC2CCCCC2N)nc1Nc1ccnc(-c2ccoc2)c1 (stereo not shown) [Example 002-057]	> 8.00	6.89 to 7.19		
CNc1cc(Nc2nc(NC3CCCCC3N)c(F)cc2C(N)=O)ccn1 (stereo not shown) [Example 002-058]	> 8.00	6.89 to 7.19		

Structure (SMILES)	pIC50 [1, 2]	pIC50 (THP-1 cells; [3])	pIC50 [1, 4]	pIC50 (THP-1 cells; [5])
CCNc1cc(Nc2nc(NC3CCCCC3N)c(F)cc2C(N)=O)ccn1 (stereo not shown) [Example 002-059]	7.30 to 8.00	6.70 to 6.89		
CCOc1cc(Nc2nc(NC3CCCCC3N)c(F)cc2C(N)=O)ccn1 (stereo not shown) [Example 002-060]	> 8.00	6.89 to 7.19		
COCCOc1cc(Nc2nc(NC3CCCCC3N)c(F)cc2C(N)=O)ccn1 (stereo not shown) [Example 002-066]	> 8.00	6.70 to 6.89		
CNc1ccc(Nc2nc(NC3CCCCC3N)c(F)cc2C(N)=O)cn1 (stereo not shown) [Example 002-073]	7.30 to 8.00	6.70 to 6.89		
COCCOc1ccc2cc(Nc3nc(NC4CCCCC4N)c(F)cc3C(N)=O)ccc2n1 (stereo not shown) [Example 002-097]	> 8.00	6.70 to 6.89		
CCOCCOCCOc1ccc2cc(Nc3nc(NC4CCCCC4N)c(F)cc3C(N)=O)ccc2n1 (stereo not shown) [Example 002-100]	> 8.00	6.70 to 6.89		
COCCOCCOc1ccc2cc(Nc3nc(NC4CCCCC4N)c(F)cc3C(N)=O)ccc2n1 (stereo not shown) [Example 002-110]	> 8.00	6.70 to 6.89		
NC(=O)c1cc(F)c(NC2CCCCC2N)nc1Nc1ccc2nc(OCCN3CCCC3=O)ccc2c1 (stereo not shown) [Example 002-113]	> 8.00	6.70 to 6.89		
NC(=O)c1cc(F)c(NC2CCCCC2N)nc1Nc1ccnc(-n2cncn2)c1 (stereo not shown) [Example 002-114]	> 8.00	> 7.19		
Cn1c(=O)ccc2cc(Nc3nc(NC4CCCCC4N)c(F)cc3C(N)=O)cnc21 (stereo not shown) [Example 002-115]	7.30 to 8.00	6.70 to 6.89		
Cc1ncc(Nc2nc(NC3CCCCC3N)c(F)cc2C(N)=O)cc1-c1ccoc1 (stereo not shown) [Example 002-117]	> 8.00	6.89 to 7.19		
Cc1ncc(Nc2nc(NC3CCCCC3N)c(F)cc2C(N)=O)cc1C1CC1 (stereo not shown) [Example 002-118]	7.30 to 8.00	6.70 to 6.89		
Cc1nc2ccc(Nc3nc(NC4CCCCC4N)c(F)cc3C(N)=O)cc2nc1C (stereo not shown) [Example 002-123]	> 8.00	6.70 to 6.89		
CCn1ncc2cc(Nc3nc(NC4CCCCC4N)c(F)cc3C(N)=O)ccc21 (stereo not shown) [Example 002-125]	> 8.00	6.89 to 7.19		
CCCn1ncc2cc(Nc3nc(NC4CCCCC4N)c(F)cc3C(N)=O)ccc21 (stereo not shown) [Example 002-126]	> 8.00	6.89 to 7.19		
NC(=O)c1cc(F)c(NC2CCCCC2N)nc1Nc1ccnc(-c2ccccc2F)c1 (stereo not shown) [Example 002-131]	> 8.00	6.89 to 7.19		
NC(=O)c1cc(F)c(NC2CCCCC2N)nc1Nc1cncc(-n2cncn2)c1 (stereo not shown) [Example 002-137]	> 8.00	6.70 to 6.89		
COc1cccc(-c2cc(Nc3nc(NC4CCCCC4N)c(F)cc3C(N)=O)ccn2)c1F (stereo not shown) [Example 002-139]	> 8.00	6.89 to 7.19		
COc1ccc(-c2cc(Nc3nc(NC4CCCCC4N)c(F)cc3C(N)=O)ccn2)c(F)c1 (stereo not shown) [Example 002-140]	> 8.00	6.70 to 6.89		
COc1ccc(F)c(-c2cc(Nc3nc(NC4CCCCC4N)c(F)cc3C(N)=O)ccn2)c1 (stereo not shown) [Example 002-141]	> 8.00	6.89 to 7.19		
NC(=O)c1cc(F)c(NC2CCCCC2N)nc1Nc1ccc(C2CC2)nc1 (stereo not shown) [Example 002-142]	> 8.00	6.70 to 6.89		
NC(=O)c1cc(F)c(NC2CCCCC2N)nc1Nc1ccnc(-c2cccc(F)c2F)c1 (stereo not shown) [Example 002-144]	> 8.00	6.70 to 6.89		
COc1ncc(Nc2nc(NC3CCCCC3N)c(F)cc2C(N)=O)cc1-n1nccn1 (stereo not shown) [Example 002-155]	7.30 to 8.00	6.89 to 7.19		
NC(=O)c1cc(F)c(NC2CCCCC2N)nc1Nc1ccc(-n2cccn2)nc1 (stereo not shown) [Example 002-160]	7.30 to 8.00	6.70 to 6.89		
Cc1nccc(Nc2nc(NC3CCCCC3N)c(F)cc2C(N)=O)c1F (stereo not shown) [Example 002-163]	7.30 to 8.00	6.70 to 6.89		
